Structures are written as SMILES.

The text below walks through data of patent publication US7652022B2, “Diaryl urea derivatives useful for the treatment of protein kinase dependent diseases” (Novartis AG, priority 2002, dated 2010).

The target in one series is T1, cytoplasmic kinase domain of human Flt-3 (Homo sapiens, UniProt P36888).
T1 construct: amino acids 563-993 of the cytoplasmic kinase domain of human Flt-3; made in house; host or cells: Sf9 insect cells (baculovirus, donor vector pFbacG01)
T1 sequence (P36888 563-993): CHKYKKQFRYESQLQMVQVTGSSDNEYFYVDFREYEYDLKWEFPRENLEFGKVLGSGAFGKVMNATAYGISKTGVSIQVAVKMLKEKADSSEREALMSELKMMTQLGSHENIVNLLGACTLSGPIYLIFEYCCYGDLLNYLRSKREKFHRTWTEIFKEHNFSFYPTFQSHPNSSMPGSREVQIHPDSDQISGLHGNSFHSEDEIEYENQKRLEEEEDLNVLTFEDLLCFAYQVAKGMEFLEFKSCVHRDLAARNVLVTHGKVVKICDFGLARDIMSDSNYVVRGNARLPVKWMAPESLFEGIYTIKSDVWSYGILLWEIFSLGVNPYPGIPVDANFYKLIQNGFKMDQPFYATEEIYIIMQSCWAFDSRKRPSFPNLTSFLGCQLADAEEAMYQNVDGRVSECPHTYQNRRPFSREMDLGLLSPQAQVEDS
In words: Flt3 kinase inhibition, GST-Flt-3 filter binding assay. Type of series: biochemical. The settings on record: % inhibition at 10 μM. As to the method:
Flt3 kinase inhibition is determined as follows: The baculovirus donor vector pFbacG01 (GIBCO) is used to generate a recombinant baculovirus expressing the amino acid region amino acids 563-993 of the cytoplasmic kinase domain of human Flt-3. The coding sequence for the cytoplasmic domain of Flt-3 is amplified by PCR from human c-DNA libraries (Clontech). The amplified DNA fragments and the pFbacG01 vector are made compatible for ligation by digestion with BamH1 and HindIII. Ligation of these DNA fragments results in the baculovirus donor plasmid Flt-3(1.1). The production of the viruses, the expression of proteins in Sf9 cells and the purification of the GST-fused proteins are performed as follows:
Production of virus: Transfer vector (pFbacG01-Flt-3) containing the Flt-3 kinase domain is transfected into the DH10Bac cell line (GIBCO) and the transfected cells are plated on selective agar plates. Colonies without insertion of the fusion sequence into the viral genome (carried by the bacteria) are blue. Single white colonies are picked and viral DNA (bacmid) is isolated from the bacteria by standard plasmid purification procedures. Sf9 or Sf21 cells (American Type Culture Collection) are then transfected in flasks with the viral DNA using Cellfectin reagent. Determination of small scale protein expression in Sf9 cells: Virus containing media is collected from the transfected cell culture and used for infection to increase its titre. Virus containing media obtained after two rounds of infection is used for large-scale protein expression. For large-scale protein expression 100 cm^2 round tissue culture plates are seeded with 5×10^7 cells/plate and infected with 1 mL of virus-containing media (approx. 5 MOIs). After 3 days the cells are scraped off the plate and centrifuged at 500 rpm for 5 min. Cell pellets from 10-20, 100 cm^2 plates, are resuspended in 50 mL of ice-cold lysis buffer (25 mMTris-HCl, pH 7.5, 2 mM EDTA, 1% NP-40, 1 mM DTT, 1 mM PMSF). The cells are stirred on ice for 15 min and then centrifuged at 5000 rpms for 20 min. Purification of GST-tagged proteins: The centrifuged cell lysate is loaded onto a 2 mL glutathione-sepharose column (Pharmacia) and washed three times with 10 mL of 25 mM Tris-HCl, pH 7.5, 2 mM EDTA, 1 mM DTT, 200 mM NaCl. The GST-tagged protein is then eluted by 10 applications (1 mL each) of 25 mM Tris-HCl, pH 7.5, 10 mM reduced-glutathione, 100 mM NaCl, 1 mM DTT, 10% Glycerol and stored at −70° C. Measurement of enzyme activity: Tyrosine protein kinase assays with purified GST-Flt-3 are carried out in a final volume of 30 μL containing 200-1800 ng of enzyme protein (depending on the specific activity), 20 mM Tris-HCl, pH 7.6, 3 mM MnCl2, 3 mM MgCl2, 1 mM DTT, 10 μM Na3VO4, 3 μg/mL poly(Glu,Tyr) 4:1, 1% DMSO, 8.0 μM ATP and 0.1 μCi [γ^33 P] ATP). The activity is assayed in the presence or absence of inhibitors, by measuring the incorporation of ^33P from [γ^33P] ATP into the poly(Glu,Tyr) substrate. The assay (30 μL) is carried out in 96-well plates at ambient temperature for 20 min under conditions described below and terminated by the addition of 20 μL of 125 mM EDTA. Subsequently, 40 μL of the reaction mixture is transferred onto Immobilon-PVDF membrane (Millipore, Bedford, Mass., USA) previously soaked for 5 min with methanol, rinsed with water, then soaked for 5 min with 0.5% H3PO4 and mounted on vacuum manifold with disconnected vacuum source. After spotting all samples, vacuum is connected and each well rinsed with 200 μL 0.5% H3PO4. Membranes are removed and washed 4× on a shaker with 1.0% H3PO4, once with ethanol. Membranes are counted after drying at ambient temperature, mounting in Packard TopCount 96-well frame, and addition of 10 μL/well of Microscint™ (Packard). IC50 values are calculated by linear regression analysis of the percentage inhibition of each compound in duplicate, at four concentrations (usually 0.01, 0.1,1 and 10 μM). […]
In the case of `CCCc1ccc(NC(=O)Cc2ccc(Oc3ccncc3)cc2)cc1` [Example 18], the “Flt3 (% at 10 μM)” value is on record as 88%.
Regarding `Cc1cc(Oc2ccc(NC(=O)Nc3cccc(C(F)(F)F)c3)cc2)ccn1` [Example 30], the “Flt3 (% at 10 μM)” value is 100%.
Regarding `O=C(Nc1ccc(Cc2ccncc2)cc1)Nc1cccc(C(F)(F)F)c1` [Example 15], the “Flt3 (% at 10 μM)” value came out at 96%.
For the compound `CN(C(=O)Nc1cccc(C(F)(F)F)c1)c1ccc(Oc2ccncc2)cc1` [Example 6], the “Flt3 (% at 10 μM)” value turned out to be 87%.
In the case of `O=C(Nc1ccc(Oc2ccncc2)cc1)Nc1ccc(OCC(F)(F)F)c(C(F)(F)F)c1` [Example 10], the “Flt3 (% at 10 μM)” value was 100%.
Take `CCc1ccc(NC(=O)Cc2ccc(Oc3ccncc3)cc2)cc1` [Example 16, N-(4-pyridin-4-yl-oxy-phenyl)acetyl-(4-ethyl-phenyl)-amide]: the “Flt3 (% at 10 μM)” value worked out at 94%.
`Cc1ccc(NC(=O)Cc2ccc(Oc3ccncc3)cc2)cc1` [Example 17]: the “Flt3 (% at 10 μM)” value turned out to be 92%.
Take `O=C(Nc1cccc(C(F)(F)F)c1)N1CCCc2cc(Oc3ccncc3)ccc21` [Example 20]: the “Flt3 (% at 10 μM)” value was 69%.
With `Cc1ccc(NC(=O)N(C)c2ccc(Oc3ccncc3)cc2)cc1` [Example 8], the “Flt3 (% at 10 μM)” value amounted to 57%.
For the compound `Cc1ccc(NC(=O)Nc2ccc(Cc3ccncc3)cc2)cc1` [Example 14], the “Flt3 (% at 10 μM)” value is 89%.
Consider `O=C(Nc1cccc(C(F)(F)F)c1)N1CCc2cc(Oc3ccncc3)ccc21` [Example 19, 5(4-pyridyloxy)-N-(3-trifluoromethyl-phenyl)amino-carbonyl-2,3-dihydroindole], for which the “Flt3 (% at 10 μM)” value is given as 63%.
In the case of `O=C(Nc1ccc(Oc2ccncc2)cc1)Nc1ccc(Br)c(C(F)(F)F)c1` [Example 9], the “Flt3 (% at 10 μM)” value is 90%.
In the case of `COc1cc(NC(=O)Nc2ccc(Oc3ccncc3)cc2)cc(C(F)(F)F)c1` [Example 11], the “Flt3 (% at 10 μM)” value worked out at 100%.
For `Cc1ccc(NC(=O)Nc2ccc(Oc3ccncc3)cc2)cc1` [Example 4], the “Flt3 (% at 10 μM)” value is 98%.
On to `CCCc1ccc(NC(=O)N(C)c2ccc(Oc3ccncc3)cc2)cc1` [Example 7], for which the “Flt3 (% at 10 μM)” value came to 67%.
With `O=C(Nc1ccc(Oc2cc(Nc3ccc(O)cc3)ncn2)cc1)Nc1ccc(OCC(F)(F)F)c(C(F)(F)F)c1` [Example 32], the “Flt3 (% at 10 μM)” value is on record as 100%.
On to `CCc1ccc(NC(=O)Nc2ccc(Cc3ccncc3)cc2)cc1` [Example 13], for which the “Flt3 (% at 10 μM)” value is 95%.
On the same count and under the same terms, with `CCc1ccc(NC(=O)N(C)c2ccc(Oc3ccncc3)cc2)cc1` [Example 5] the figure was 64%.
On to `CCCc1ccc(NC(=O)Nc2ccc(Cc3ccncc3)cc2)cc1` [Example 12], for which the “Flt3 (% at 10 μM)” value is reported as 92%.
For the compound `O=C(Nc1ccc(Oc2cc(Cl)ncn2)cc1)Nc1cccc(C(F)(F)F)c1` [Example 21, N-(4-(6-Chloropyrimidin-4-yl)-oxyphenyl)-N′-(3-trifluoromethylphenyl)-urea], the “Flt3 (% at 10 μM)” value is 94%.

Tested on in the next series: not given
Assay: not given
Conditions: not given
`O=C(Nc1cccc(C(F)(F)F)c1)N1CCCc2cc(Oc3ccncc3)ccc21` [Example 20] displayed a melting point of 185.5 to 188 °C.
Compound `O=C(Nc1cccc(C(F)(F)F)c1)N1CCc2cc(Oc3ccncc3)ccc21` [Example 19, 5(4-pyridyloxy)-N-(3-trifluoromethyl-phenyl)amino-carbonyl-2,3-dihydroindole] gave a melting point of 171 to 172.5 °C.
`O=C(Nc1ccc(Oc2cc(Cl)ncn2)cc1)Nc1cccc(C(F)(F)F)c1` [Example 21, N-(4-(6-Chloropyrimidin-4-yl)-oxyphenyl)-N′-(3-trifluoromethylphenyl)-urea]: the melting point fell in the range of 187.4 to 189.7 °C.

Broadly, the melting point is the temperature of the solid-liquid transition.
